Test systems include OVCAR-8 ovarian; HCT-15 colon; NCI/ADR-RES ovarian; SK-MEL-2 melanoma; SW-620 colon; RXF 393 renal; UACC-257 melanoma; K-562 leukemia; RPMI-8226 leukemia; T-47D breast.
Common to all, as to assay: inhibition of tumour cell growth, NCI panel, 48 h

The structures appear in SMILES notation.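 Values below derive from 48-hour exposures of cells grown in 96-well plates, with endpoints linearly interpolated between the two concentrations bracketing the appropriate inhibition level. GI50 marks 50% less growth. TGI marks complete inhibition of growth.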

For `O=C1c2[nH]cc(CNC3CN4CCC3CC4)c2C(=O)c2c1c(O)c1ccccc1c2O` (configuration not stated), the GI50 was 17.6 µM in the assay on OVCAR-8 ovarian; 3.62 µM in the assay on HCT-15 colon; 2.08 µM in the assay on NCI/ADR-RES ovarian; 4.02 µM with SK-MEL-2 melanoma; 0.117 µM in the assay on SW-620 colon; 5.28 µM in the assay with RXF 393 renal. For the same molecule, the GI50 in the assay with UACC-257 melanoma was 31.7 µM; with K-562 leukemia, 0.238 µM; with RPMI-8226 leukemia, 1.46 µM; with T-47D breast it was 19 µM. Further, the TGI is over 100 µM in the assay on OVCAR-8 ovarian; 8.55 µM in the assay with HCT-15 colon; 6.4 µM with NCI/ADR-RES ovarian; 18.6 µM with SK-MEL-2 melanoma; 0.399 µM in the assay with SW-620 colon; 84.3 µM in the assay with RXF 393 renal. Further, the TGI is over 76.3 µM in the assay on UACC-257 melanoma, 12.1 µM with K-562 leukemia, 4.15 µM in the assay with RPMI-8226 leukemia and 39.2 µM with T-47D breast.

Take `CC(C)(C)N1CCC1CN` (configuration not stated): the GI50 in the assay with OVCAR-8 ovarian, in the assay with HCT-15 colon, with NCI/ADR-RES ovarian, in the assay on SK-MEL-2 melanoma, in the assay on SW-620 colon and in the assay on RXF 393 renal was over 100 µM each time. The GI50 in the assay with UACC-257 melanoma, in the assay on K-562 leukemia, in the assay with RPMI-8226 leukemia and in the assay with T-47D breast was over 100 µM in each case. Also, the TGI in the assay with OVCAR-8 ovarian, in the assay with HCT-15 colon, in the assay with NCI/ADR-RES ovarian, in the assay with SK-MEL-2 melanoma, in the assay with SW-620 colon and with RXF 393 renal was over 100 µM each time. The TGI in the assay on UACC-257 melanoma, with K-562 leukemia, in the assay on RPMI-8226 leukemia and in the assay on T-47D breast was over 100 µM in each case.

In the case of `CSC1=Nc2c(c(C)c(-c3ccccc3)n2CCCN2CCCCC2)C2=NC(=O)C[C@H](C)N12`, the GI50 is 4.01 µM in the assay with OVCAR-8 ovarian; 8.41 µM in the assay with HCT-15 colon; 20 µM in the assay with NCI/ADR-RES ovarian; 2.14 µM in the assay with SK-MEL-2 melanoma; 2.99 µM in the assay on SW-620 colon; 2.56 µM with RXF 393 renal. Also, the GI50 with UACC-257 melanoma was 4.37 µM; in the assay with K-562 leukemia, 5.08 µM; with RPMI-8226 leukemia it was 0.505 µM; in the assay on T-47D breast, 2.28 µM. In addition, the TGI in the assay on OVCAR-8 ovarian was over 55.7 µM; with HCT-15 colon, over 53.2 µM; in the assay on NCI/ADR-RES ovarian, 79.1 µM; with SK-MEL-2 melanoma, 5.26 µM; with SW-620 colon, 18.2 µM; with RXF 393 renal, 10.2 µM. Also, the TGI in the assay with UACC-257 melanoma worked out at 27.5 µM; with K-562 leukemia, 87.6 µM; in the assay with RPMI-8226 leukemia, 2.25 µM; with T-47D breast, 8.53 µM.

Consider `O=C(c1ccco1)c1nc2cc(C(F)(F)F)ccc2nc1C(F)(F)F`, for which the GI50 with OVCAR-8 ovarian, with HCT-15 colon, with NCI/ADR-RES ovarian, in the assay on SK-MEL-2 melanoma, in the assay with SW-620 colon and in the assay on RXF 393 renal was over 100 µM throughout. The GI50 with UACC-257 melanoma was over 100 µM; with K-562 leukemia, over 100 µM; in the assay with RPMI-8226 leukemia, 49.8 µM; in the assay with T-47D breast, 72 µM. For the same molecule, the TGI in the assay with OVCAR-8 ovarian, with HCT-15 colon, with NCI/ADR-RES ovarian, in the assay with SK-MEL-2 melanoma, in the assay on SW-620 colon and in the assay with RXF 393 renal was over 100 µM throughout. Further, the TGI with UACC-257 melanoma, with K-562 leukemia, with RPMI-8226 leukemia and with T-47D breast was over 100 µM each time.

On to `CN1CCC(COc2cnc(-c3cccc(Cn4nc(-c5cccc(C#N)c5)ccc4=O)c3)nc2)CC1`, for which the GI50 in the assay on OVCAR-8 ovarian is 3.27 µM; with HCT-15 colon, 3.47 µM; in the assay on NCI/ADR-RES ovarian, 7.41 µM; with SK-MEL-2 melanoma, 6.66 µM; with SW-620 colon it was 3.55 µM; in the assay with RXF 393 renal, 1.49 µM. The GI50 in the assay on UACC-257 melanoma is 1.81 µM; in the assay with K-562 leukemia, 1.74 µM; in the assay with RPMI-8226 leukemia it was 2.64 µM; in the assay on T-47D breast it was 2.27 µM. Besides, the TGI in the assay on OVCAR-8 ovarian amounted to 12.8 µM; in the assay with HCT-15 colon, 15.5 µM; in the assay with NCI/ADR-RES ovarian it was 28.1 µM; with SK-MEL-2 melanoma, 15.1 µM; in the assay on SW-620 colon, 31.3 µM; with RXF 393 renal it was 3.08 µM. Besides, the TGI with UACC-257 melanoma stood at 3.52 µM; in the assay with K-562 leukemia it was 4.32 µM; in the assay on RPMI-8226 leukemia, 9.21 µM; with T-47D breast it was 5.99 µM.

`NS(=O)(=O)OCC1OC(n2cnc3cncnc32)C(O)C1O` (configuration not stated): the GI50 in the assay with OVCAR-8 ovarian is under 0.01 µM; with HCT-15 colon, 0.0283 µM; in the assay on NCI/ADR-RES ovarian, 0.0103 µM; in the assay with SK-MEL-2 melanoma it was 0.0351 µM; in the assay with SW-620 colon, 0.0167 µM; in the assay on RXF 393 renal, 0.0235 µM. Moreover, the GI50 with UACC-257 melanoma was 0.0431 µM; in the assay on K-562 leukemia, 0.0333 µM; in the assay on RPMI-8226 leukemia, 0.0333 µM; in the assay with T-47D breast, under 0.0134 µM. The TGI with OVCAR-8 ovarian amounted to 0.0466 µM; with HCT-15 colon it was 0.105 µM; with NCI/ADR-RES ovarian it was 0.0503 µM; in the assay on SK-MEL-2 melanoma, 0.133 µM; with SW-620 colon, 0.155 µM; in the assay on RXF 393 renal, 0.065 µM. Moreover, the TGI worked out at 0.244 µM with UACC-257 melanoma, 1.22 µM in the assay on K-562 leukemia, 0.147 µM in the assay with RPMI-8226 leukemia and 0.0665 µM with T-47D breast.

Turning to `COC1C(CO)OC(n2c3ccccc3c3c4c(c5c6ccccc6[nH]c5c32)C(=O)NC4=O)C(O)C1O` (configuration not stated), the GI50 in the assay with OVCAR-8 ovarian is 0.0327 µM; in the assay with HCT-15 colon it was 0.524 µM; in the assay on NCI/ADR-RES ovarian, 1.37 µM; in the assay with SK-MEL-2 melanoma, 0.234 µM; with SW-620 colon, under 0.01 µM; in the assay on RXF 393 renal, 0.114 µM. Besides, the GI50 was 0.103 µM with UACC-257 melanoma, under 0.0145 µM in the assay on K-562 leukemia, 2.22 µM in the assay on RPMI-8226 leukemia and under 0.0126 µM in the assay with T-47D breast. The TGI is 1.48 µM with OVCAR-8 ovarian; over 31.9 µM in the assay on HCT-15 colon; over 43.7 µM with NCI/ADR-RES ovarian; 0.856 µM with SK-MEL-2 melanoma; 0.616 µM in the assay with SW-620 colon; 0.877 µM in the assay with RXF 393 renal. The TGI turned out to be 25.2 µM in the assay on RPMI-8226 leukemia and 0.117 µM in the assay on T-47D breast.

`CN(C)c1ccc(/C=C/c2ccnc3c(O)cccc23)cc1`: the GI50 is 0.352 µM with OVCAR-8 ovarian; 0.335 µM with HCT-15 colon; 0.312 µM in the assay on NCI/ADR-RES ovarian; 0.301 µM with SK-MEL-2 melanoma; 0.397 µM with SW-620 colon; 0.813 µM in the assay with RXF 393 renal. Besides, the GI50 is 0.409 µM in the assay with UACC-257 melanoma, 0.364 µM in the assay on K-562 leukemia, 0.482 µM in the assay with RPMI-8226 leukemia and 0.375 µM in the assay with T-47D breast. Further, the TGI is over 100 µM in the assay on OVCAR-8 ovarian; over 100 µM in the assay with HCT-15 colon; 11 µM in the assay with SK-MEL-2 melanoma; over 100 µM in the assay with SW-620 colon; 15.1 µM in the assay with RXF 393 renal; 3.08 µM with UACC-257 melanoma. Further, the TGI with K-562 leukemia, in the assay on RPMI-8226 leukemia and in the assay on T-47D breast was over 100 µM each time.
